The source of these data is US9895390B2, “Methods and assays for combination treatment of cancer” (CHILDREN'S MEDICAL CENTER CORPORATION, priority 2012, dated 2018).

The test system of one test is human NSCLC lines. Nature of the test: Cell line growth, 4 days (Cell Titer Glo). In kind it is cell-based. To be noted: 1 μM DZNep. Here is the method:
(§1) Cell lines were dissociated, counted and plated at 5000 cells per well in flat bottom opaque tissue culture treated 96 well plates (CytoOne). Edge wells were filled with PBS. The following day, 2× drug diluted in media was added to each well such that the well then contained 100 ul media with 1× drug concentration. After 4 days, Cell Titer Glo™ (Promega) was added and luminescence was read on a BioTec plate reader to determine relative cell number in each well. Data were averaged for triplicate or quadruplicate technical replicates, normalized to the untreated wells and input into GraphPad Prism software to extrapolate IC50.
as §1, with “concentration at the following doses: etoposide; 0, 0.1, 1, 3, 5, 7, 10, 50, 100, 500 μM, cisplatin; 0, 0.1, 1, 5, 10, 30, 70, 100, 500 μM, or doxorubicin; 0, 0.01, 0.1, 0.5, 1, 3, 5, 7, 10, 50 μM.” for “concentration.”, “CELLTITER-GLO™” for “Cell Titer Glo™”, “replicates and” for “replicates,”, “wells. […]” for “wells and input into GraphPad Prism software to extrapolate IC50.”
Background: ATP-based viability assays read luminescence as a measure of living cells.

The subject of the next test is H157 xenografts. Nature of the test: Xenograft tumor growth in nude mice. In kind it is in vivo, Foxn1nu (nude) mice. The procedure: (§2) To determine if the protected and sensitized phenotypes could be observed in vivo, cells were transplanted subcutaneously, tumors allowed to initiate, and mice treated with etoposide and DZNep. 12 days after cell injection, tumor bearing mice were randomized into groups that received either etoposide (20 mg/kg/day) or placebo (corn oil) daily for five days. The cohorts were further subdivided into groups that also received DZNep, either 2 mg/kg/day twice during the first week (dosing scheme A), or 1 mg/kg/day twice during the first two weeks (dosing scheme B).
(§3) Cell lines were dissociated into single cells, counted and resuspended at 1×10^6 cells per 250 μL of 1:1 media/matrigel (BD). 8- to 16-week-old Foxn1nu (nude) mice (Harlan) were injected subcutaneously with 1×10^6 cells in four spots on flanks. Chemo and DZNep were administered from day 12 to day 17 post injections, Etoposide: 20 mg/kg/day i.p. in corn oil once per day for 5 consecutive days, and DZNep 2 mg/kg/day i.p. in corn oil twice per week for 1 week (dosing scheme A) OR 1 mg/kg/day i.p. in corn oil twice per week for 2 weeks (dosing scheme B). Tumor growth was measured every other day by caliper.
as §3, with “2-4” for “four”, “Etoposide” for “Chemo”, “injections; etoposide:” for “injections, Etoposide:”, “week, or” for “week (dosing scheme A) OR”, “weeks.” for “weeks (dosing scheme B).”, “caliper. All mouse experiments were approved by the CHB Animal Care and Use Committee and by the Dana-Farber Cancer Institute Institutional Animal Care and Use Committee, both accredited by AAALAC, and were performed in accordance with relevant institutional and national guidelines and regulations.” for “caliper.”

The subject of another test is H23 xenografts. Nature of the test: Xenograft tumor growth in nude mice. In kind it is in vivo, Foxn1nu (nude) mice. To be noted: H23, DZNep 1 mg/kg/day twice per week for 2 weeks (dosing scheme B). Here is the method:
as §2, §3
as §3, with “2-4” for “four”, “Etoposide” for “Chemo”, “injections; etoposide:” for “injections, Etoposide:”, “week, or” for “week (dosing scheme A) OR”, “weeks.” for “weeks (dosing scheme B).”, “caliper. All mouse experiments were approved by the CHB Animal Care and Use Committee and by the Dana-Farber Cancer Institute Institutional Animal Care and Use Committee, both accredited by AAALAC, and were performed in accordance with relevant institutional and national guidelines and regulations.” for “caliper.”

The next test relates to H157. Description: Growth rate over 10 day time-course (Cell Titer Glo). In kind it is cell-based, human. To be noted: H157, 1 μM DZNep, 10 day time-course. The procedure:
(§4) FIG. 2A depicts a Western Blot for EZH2 and H3K27me3 performed on whole cell extracts 4 days after indicated treatments, β-actin shown as a loading control. FIG. 2B depicts a graph of the growth rates of matched shGFP and shGFP cells treated with 1 μM DZNep and assayed by Cell Titer Glo at days 3, 5, 7, and 10 post plating at equal densities. Average luminescence ±s.e.m. for 3 replicate wells is shown based on when each shGFP cell line reached logarithmic growth, * indicates p<0.03. FIG. 2C depicts a graph of the response to Etoposide. Cell lines were plated at equal densities and treated a range of etoposide doses with or without 1 μM DZNep. On the 4th day, cell viability was measured using Cell Titer Glo and the percent survival at each dose of etoposide was calculated. Dose response curves were generated for the no DZNep and DZNep treated cells using the GraphPad prism software and IC50s were extrapolated. The fold change±s.e.m. of etoposide IC50 in response to DZNep is plotted, n=4 biological replicates, * indicates p<0.05. Cell lines with mutations in Brg1, EGFR and B-Raf are indicated.

The test system of test [1] is HCC15. The test is described as above. It counts as cell-based, human. To be noted: HCC15, 1 μM DZNep, 10 day time-course. The procedure: as §4
The subject of the next test is H441. The test is described as above. In kind it is cell-based, human. To be noted: H441, 1 μM DZNep, 10 day time-course. The procedure: as §4
The test system of a further test is Calu6. The description is as above. In kind it is cell-based, human. To be noted: Calu6, 1 μM DZNep, 10 day time-course. Here is the method:
as §4

A further test concerns HCC95. The description is as above. In kind it is cell-based, human. To be noted: HCC95, 1 μM DZNep, 10 day time-course. Here is the method:
as §4

The subject of test [2] is HCC15. Nature of the test: Etoposide dose response curves with or without DZNep, stably transduced lines. In kind it is cell-based, human. To be noted: HCC15 control cells. The procedure: as §1
as §1, with “concentration at the following doses: etoposide; 0, 0.1, 1, 3, 5, 7, 10, 50, 100, 500 μM, cisplatin; 0, 0.1, 1, 5, 10, 30, 70, 100, 500 μM, or doxorubicin; 0, 0.01, 0.1, 0.5, 1, 3, 5, 7, 10, 50 μM.” for “concentration.”, “CELLTITER-GLO™” for “Cell Titer Glo™”, “replicates and” for “replicates,”, “wells. […]” for “wells and input into GraphPad Prism software to extrapolate IC50.”

The next test has as its system H460. The test is described as above. It counts as cell-based, human. To be noted: H460 control cells. Here is the method: as §1
as §1, with “concentration at the following doses: etoposide; 0, 0.1, 1, 3, 5, 7, 10, 50, 100, 500 μM, cisplatin; 0, 0.1, 1, 5, 10, 30, 70, 100, 500 μM, or doxorubicin; 0, 0.01, 0.1, 0.5, 1, 3, 5, 7, 10, 50 μM.” for “concentration.”, “CELLTITER-GLO™” for “Cell Titer Glo™”, “replicates and” for “replicates,”, “wells. […]” for “wells and input into GraphPad Prism software to extrapolate IC50.”

SMILES strings stand for the structures. Entries after “also recorded” stand apart in the source; their conditions may differ.

Take `Nc1nccc2c1ncn2[C@@H]1C=C(CO)[C@@H](O)[C@H]1O` [DZNep, 3-Deazaneplanocin A]: the “average reduction in growth of the cell lines” value with human NSCLC lines (4-day time point) is 20%. Also, in the test with human NSCLC lines (4-day time-point, panel of 26 lines), the “cell lines showing a significant reduction in growth” value is reported as 11 of 26. Also, the “efficacy of dosing scheme B” value in the test with H157 xenografts (H157, DZNep 1 mg/kg/day twice per week for 2 weeks) is given as “not as effective”. For the same molecule, the “tumor burden, DZNep alone vs untreated/vehicle” value in the test on H157 xenografts (H157 xenografts, DZNep 2 mg/kg/day twice in first week (dosing scheme A)) is “effective at reducing tumor burden; also recorded: weakly effective”. For the same molecule, the “sensitivity of xenografts to DZNep as a single therapy” value with H23 xenografts is listed as “very sensitive; also recorded: sensitive”. For the same molecule, the decrease in proliferation in the test with H157 was 2.1 fold; in the test with HCC15 [1], 3.2 fold; in the test on H441, 2.1 fold; in the test on Calu6, 2.1 fold. The change in proliferation result with HCC95 is listed as “increased proliferation”. In addition, the “decrease in etoposide IC50 in response to DZNep” value in the test on HCC15 [2] came to 2 fold. Moreover, the “increase in etoposide IC50 in response to DZNep” value in the test on H460 amounted to 2 fold.
